Calls of active or inactive are those of the source.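 How the source made its calls: active means compounds giving half or more protection of infected cells from virus-caused growth loss, again on retest; inactive means the rest.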

The record followed here is PubChem BioAssay AID179 (DTP/NCI, 2004).

The subject of this assay is CEM cells HIV-1 protection, formazan growth assay. The assay can be described thus: NCI AIDS Antiviral Assay. As to conditions: for IC50: measured here: growth of uninfected CEM cells. The essentials:
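Soluble formazan readout of cell growth; CEM cells ± HIV-1; 5 drug concs. ≥50% protection → retest; ≥50% again = moderately active; reproducible 100% = confirmed active.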

The EC50 is the concentration at which the effect is half-maximal. By IC50 is commonly meant the concentration at which inhibition is half-maximal. Low readings indicate inhibition by little substance, high ones a need for much substance. As for `CSCCCNC(=O)c1csc([C@@H](CSC)NC(=O)CCNC(=O)[C@@H](NC(=O)OCC(Br)(Br)Br)C(C)O)n1` (some centres not stated), the EC50 was more than 166 µM and the IC50 was more than 166 µM.

For `COc1cc2c(cc1OC)C13CCN4CC5=CCOC6CC(=O)N2C1C6C5C4C3` (configuration not stated) (tested in a mixture with another compound), the EC50 was more than 209 µM.

Consider `O=c1[nH]cnc2c1C(c1ccccc1)c1ccccc1-2` (configuration not stated), for which the EC50 was more than 38 µM and the IC50 is more than 38 µM.

Regarding `COc1ccc(OC)c(Cc2c(OC)ccc(OC)c2O)c1O`, the outcome was inactive.

For `CC1(C)Oc2ccc3c(=O)c(-c4ccccc4)c(-c4ccccc4)oc3c2C1C(=O)O` (configuration not stated), the EC50 was more than 200 µM and the IC50 came out at 72.4 µM.

Turning to `CCN(CC)CCC(=O)NC1c2ccccc2Sc2c(C)cccc21` (configuration not stated), the EC50 was more than 513 µM and the IC50 is 44.7 µM.

In the case of `CCc1c(Cc2ccccc2)n(COCCSc2ccccc2)c(=O)[nH]c1=O`, the EC50 was 3.24 µM and the IC50 is 26.9 µM.

On to `COCN1C(=O)CN=C(c2ccccc2)c2cc(NO)ccc21`, for which the EC50 was 16.2 µM and the IC50 stood at 21.9 µM.

Consider `CCOP(=O)(OCC)/C(=C/n1c(=S)[nH]c2ccc([N+](=O)[O-])cc21)C(=O)OC`, for which the EC50 is more than 200 µM and the IC50 was found to be 115 µM.

In the case of `Cc1ccc2[nH]c3c(c2c1)[n+]([O-])c1ccccc1[n+]3[O-]`, the EC50 is more than 200 µM and the IC50 was 38.9 µM.

Take `O=C(CNc1ccc(Cl)cc1)Nn1c(-c2ccccc2)nc2ccccc2c1=O`: the EC50 is more than 200 µM and the IC50 was determined as 5.13 µM.

For the molecule `COC(=O)/C(=N\NC(N)=O)C(C(=O)C(=O)Nc1ccccc1OC)c1nc2ccc([N+](=O)[O-])cc2[nH]c1=O` (configuration not stated), the EC50 is more than 479 µM and the IC50 is 229 µM.

Take `O=[N+]([O-])c1cc([As](=O)(O)O)ccc1O`: the EC50 was more than 200 µM and the IC50 was more than 200 µM.

With `COC(=O)C(=O)C(/C=N/C(=S)Nc1ccc(S(=O)(=O)Nc2nccs2)cc1)=C(\O)c1c(C)[nH]c2ccccc12`, the EC50 is more than 200 µM and the IC50 came to 72.4 µM.

In the case of `NC(=O)Nc1c([N+](=O)[O-])cc(C(F)(F)F)cc1[N+](=O)[O-]`, the result was inactive.

On to `CC1(C)C(C#N)C1C1=C(N2CCOCC2)[C@]2(C)C(OC(=O)c3ccccc3)CC[C@@H]2C1` (some centres not stated), for which the EC50 is more than 50.1 µM and the IC50 worked out at 38.9 µM.

As to `NP(N)(=O)NC(=O)c1ccc(F)cc1`, the EC50 is more than 200 µM and the IC50 is more than 200 µM.

Consider `Cc1ccc(S(=O)(=O)n2c3c(c4ccccc42)CCN2C(=O)C(S(=O)(=O)c4ccccc4)=CCC32)cc1` (configuration not stated), for which the EC50 is more than 200 µM and the IC50 turned out to be 0.589 µM.

As to `COc1ccccc1N=NC1=C2Nc3ccccc3N=C1N(c1ccccc1OC)C(=S)N2c1ccccc1C`, the outcome was inactive.

With `CCOC(=O)[C@@]12C(C)=CC(=O)O[C@]1(C)C1C(=O)NC(=O)C12` (some centres not stated), the EC50 was more than 851 µM and the IC50 was more than 851 µM.

On to `CC(=O)O/N=C/c1ncccc1CO`, for which the EC50 is more than 490 µM and the IC50 was 389 µM.

Turning to `Cc1ccc(NC(=O)CC(=O)n2nc(-c3ccccc3)c(N=Nc3ccc(Cl)cc3)c2-c2ccccc2)cc1`, the EC50 was more than 9.77 µM and the IC50 was more than 9.77 µM.

`CC1(C)CC2=C(CC3C4C=C5CC(C)(C)OC(=O)C5(C4)C23)C(=O)O1` (configuration not stated): the EC50 is more than 87.1 µM and the IC50 is more than 87.1 µM.

With `O=C(Nc1ccc([N+](=O)[O-])cc1)C(=O)C(C(=O)c1ccccc1F)C1OC(=O)c2ccccc21` (configuration not stated), the EC50 was more than 204 µM and the IC50 is 8.71 µM.

On to `CC(=O)C1CCN(Cc2ccccc2)C1` (configuration not stated), for which the result was inactive.

In the case of `CCCCCCNC(=O)CCN(C(=O)O)S(=O)(=O)c1ccc(NC(=O)c2ccccc2)cc1`, the EC50 is more than 380 µM and the IC50 is more than 380 µM.

With `CCOC(=O)c1cnc2c(ccc3[nH]cccc32)c1=O`, the EC50 is more than 26.9 µM and the IC50 was more than 26.9 µM.

With `Nc1ccc2c3c(cccc13)C(=O)N(CCCBr)C2=O`, the EC50 is more than 200 µM and the IC50 turned out to be 7.08 µM.

Turning to `O=C(O)c1cc(=O)c2c([nH]c3ccccc32)s1`, the result was inactive.

For `NC(N)=N/N=C(\c1ccc(F)cc1)C1CC1`, the EC50 was more than 200 µM and the IC50 amounted to 33.9 µM.

In the case of `Cc1c2ccccc2c(=O)n2c(-c3ccccn3)cccc12`, the EC50 is more than 200 µM and the IC50 was 120 µM.

With `CCCCS(=N)(=O)CCC(N)P(=O)(O)O` (configuration not stated), the EC50 is more than 200 µM and the IC50 is more than 200 µM.

For the molecule `N#CC(CCN1CCC(Nc2ccccc2)(c2nnnn2C2CCCCC2)CC1)(c1ccccc1)c1ccccc1`, the EC50 was more than 200 µM and the IC50 was more than 200 µM.

On to `C/C(=N\NS(=O)(=O)c1ccc(C)cc1)c1ccccn1`, for which the EC50 was more than 200 µM and the IC50 was 58.9 µM.

On to `CC(=O)Nc1ccc(/C=c2\sc3nnc(CCC(=O)Nc4ccccc4Cl)n3c2=O)cc1`, for which the EC50 was more than 28.8 µM and the IC50 was more than 28.8 µM.

As for `Nc1ccc2nc(-c3ccccn3)c(-c3ccccn3)nc2c1`, the EC50 is 123 µM and the IC50 was more than 200 µM.

With `CCOCC(Br)C(OCC)OCC` (configuration not stated), the outcome was inactive.

In the case of `CCOC(=O)C1=C(C)NC2=C(C(=O)CC(C)(C)C2)C1CCSC` (configuration not stated), the EC50 was more than 200 µM and the IC50 is more than 200 µM.

Regarding `Cc1nn(-c2ccccc2)c2nc(N3CCOCC3)nnc12`, the result was inactive.

For `O=S(Cc1cc2c(cc1Br)OCO2)c1ccccc1` (configuration not stated), the EC50 was more than 39.8 µM and the IC50 is more than 39.8 µM.

As to `O=C(O)C1(c2ccccc2)CCCNCC1` (configuration not stated), the EC50 is more than 6170 µM and the IC50 was more than 6170 µM.

`Cc1nc(Nc2ccccc2)sc1C(=O)CC(=O)C(=O)NC12CC3CC(CC(C3)C1)C2`: the EC50 was more than 81.3 µM and the IC50 is more than 81.3 µM.

In the case of `O=c1[nH]c2ccc(CC(=S)N3CCCCC3)cc2s1`, the EC50 was more than 200 µM and the IC50 was 148 µM.

Turning to `COc1ccc2c(c1)CC[C@@H]1[C@@H]2CC[C@]2(C)C(=O)/C(=N/O)C[C@@H]12`, the EC50 was more than 200 µM and the IC50 stood at 8.51 µM.

Consider `NC(N)=NS(=O)(=O)c1ccc(NCCc2c3ccccc3nc3ccccc23)cc1`, for which the EC50 was more than 200 µM and the IC50 was determined as 66.1 µM.

For `Cc1ccc(Nc2c(C#N)[n+]([O-])c3cc(Cl)ccc3[n+]2[O-])cc1`, the EC50 is more than 20 µM and the IC50 is 19.1 µM.

For the molecule `COC(=O)/C(C#N)=C/NC(=S)Nc1ccccc1`, the EC50 is more than 200 µM and the IC50 is more than 200 µM.

Take `[N-]=[N+]=Nc1ncnc2c1sc(=S)n2-c1ccccc1`: the EC50 was more than 91.2 µM and the IC50 is more than 91.2 µM.

For `C[n+]1c2ccccc2n2c3ccccc3c(NCCc3ccccn3)c(C#N)c21`, the EC50 was more than 20 µM and the IC50 stood at 1.29 µM.

As to `COc1ccc(CCNC(=S)/N=C\C2=C(O)c3ccccc3C2=O)cc1OC`, the EC50 is more than 200 µM and the IC50 is more than 200 µM.

`CSc1nc2c(nc(N)n2C2OCC(O)C(O)C2O)c(=O)[nH]1` (configuration not stated): the outcome was inactive.

`CCOC(=O)CNc1nnnn1C1OC(CO)C(O)C1O` (configuration not stated): the EC50 was more than 832 µM and the IC50 is more than 832 µM.

On to `CC1OC(OC2C(CO)OC(O[C@H]3CC[C@@]4(C)C(=CC[C@H]5[C@@H]6C[C@@H]7O[C@](O)(CC[C@H](C)COC8OC(CO)C(O)C(O)C8O)[C@@H](C)[C@@H]7[C@@]6(C)CC[C@@H]54)C3)C(OC3OC(C)C(O)C(O)C3O)C2O)C(O)C(O)C1O` (some centres not stated), for which the EC50 was more than 200 µM and the IC50 came to 1.48 µM.

Take `Cc1cc2c(c3c1c1ccccc1n3C)C(=O)c1ccccc1C2=O`: the EC50 is more than 1.7 µM and the IC50 was more than 1.7 µM.

On to `O=[N+]([O-])c1ccc(C2CC(c3ccccc3Cl)=Nc3ccccc3S2=O)cc1` (configuration not stated), for which the EC50 is more than 4.9 µM and the IC50 is more than 4.9 µM.

Turning to `COc1cc(OC)c2nc(C)c3c(c2c1)NCC3`, the EC50 is more than 200 µM and the concentration for half-maximal inhibition (IC50) was found to be 3.98 µM.

For `CC(C)CCCC(C)[C@H]1CC[C@H]2[C@@H]3CC[C@H]4C[C@@H](CCC=C(c5cc(Cl)c(OCc6ccc([N+](=O)[O-])cc6)c(C(=O)O)c5)c5cc(Cl)c(OCc6ccc([N+](=O)[O-])cc6)c(C(=O)O)c5)CC[C@]4(C)[C@H]3CC[C@]12C` (some centres not stated), the EC50 was more than 100 µM and the concentration for half-maximal inhibition (IC50) is more than 100 µM.

Regarding `C[C@H]1C=C2[C@@H]3CC(C)(C(=O)O)CC[C@]3(C)CC[C@]2(C)[C@]2(C)CC[C@H]3C(C)(C)[C@@H](OC(=O)c4cccc5c(=O)c6ccccc6[nH]c45)CC[C@]3(C)[C@@H]12` (some centres not stated), the EC50 was more than 100 µM and the IC50 was 35.5 µM.

As to `C=C1C(=O)c2cc3c(cc2C(c2cc(OC)c(OC)c(OC)c2)[C@@H]1C(=O)O)OCO3` (some centres not stated), the result was inactive.

Consider `COc1ccc2cccc(C(=O)c3ccc(C)c4c3CCC4)c2c1`, for which the outcome was inactive.

As to `CC1=NN(C(=O)CC(=O)Nc2ccc(Cl)cc2)C(=O)C1N=Nc1ccc(C(=O)O)cc1` (configuration not stated), the EC50 is more than 200 µM and the IC50 amounted to 87.1 µM.

As to `Cc1cc(S(=O)(=O)Nc2n[nH]c(Nc3ccccc3)n2)c(S)cc1Cl`, the EC50 was 170 µM and the IC50 amounted to 275 µM.

Regarding `COC(=O)c1c2c(cc3c1CC1(Cc4ccccc4C1=O)C3)CCC2` (configuration not stated), the EC50 was more than 200 µM and the IC50 turned out to be 13.5 µM.

For `O=C(Nc1ccc(Cl)cc1)NC(O)C(Cl)(Cl)Cl` (configuration not stated), the EC50 was more than 200 µM and the IC50 was determined as 148 µM.

Regarding `N#Cc1cc([N+](=O)[O-])ccc1NC(=O)C(=O)Nc1n[nH]c(N)n1`, the EC50 was more than 794 µM and the IC50 came to 692 µM.

As for `Cc1oc(C)c2c1C(=O)N(C)C2=O`, the EC50 is more than 100 µM and the IC50 was more than 100 µM.

For `CS(=O)(=O)c1ccc(C(=O)O[C@@H]2C(=O)N3CC[C@H]4OC(O)[C@@H]2[C@H]43)cc1` (some centres not stated), the EC50 was more than 200 µM and the IC50 is more than 200 µM.

As to `Cc1ccc(SSc2ccc(C)cc2)cc1`, the EC50 is more than 20 µM, the result was inactive and the IC50 amounted to 3.55 µM.

In the case of `O=c1[nH]ccc2c1ccn2C1CC(O)C(CO)O1` (configuration not stated), the result was inactive.
